Measured values reported in patent US20240067693A1, “POLYPEPTIDES AND USES THEREOF” (MEDIMMUNE LIMITED, priority 2020, published 2024).
Numbered stars: 1 amine (or outer) side, 2 acyl side, 3 side chain; on linkers, the order of the positions; unused ones are H or OH. Bridge positions count the residues as written; N and C are the ends. Square brackets hold non-standard residues; d marks the D form. Side chains are listed from the residue outwards. Peptide text beside a SMILES is read from it. * marks the point of attachment. C18 diacid = O=C(O)CCCCCCCCCCCCCCCCC(=O)*; γGlu = O=C(O)[C@H](CCC(=O)[*:2])N[*:1]; αMeF = C[C@](N)(Cc1ccccc1)C(=O)O; Aib = CC(C)(N)C(=O)O

Legend:
[1] = target: T1, rat amylin receptor (calcitonin receptor co-expressed with receptor activity modifying protein, RAMP3) (Rat AMYR3) (Rattus norvegicus, UniProt P32214+Q9JJ73); assay: cAMP production in HEK cells with stable recombinant expression of rat amylin receptor (Rat AMYR3); assay type: cell-based; conditions: assay buffer with 0.1% BSA
T1 construct: expressed in transfected cells
T1 sequence (P32214 25-516): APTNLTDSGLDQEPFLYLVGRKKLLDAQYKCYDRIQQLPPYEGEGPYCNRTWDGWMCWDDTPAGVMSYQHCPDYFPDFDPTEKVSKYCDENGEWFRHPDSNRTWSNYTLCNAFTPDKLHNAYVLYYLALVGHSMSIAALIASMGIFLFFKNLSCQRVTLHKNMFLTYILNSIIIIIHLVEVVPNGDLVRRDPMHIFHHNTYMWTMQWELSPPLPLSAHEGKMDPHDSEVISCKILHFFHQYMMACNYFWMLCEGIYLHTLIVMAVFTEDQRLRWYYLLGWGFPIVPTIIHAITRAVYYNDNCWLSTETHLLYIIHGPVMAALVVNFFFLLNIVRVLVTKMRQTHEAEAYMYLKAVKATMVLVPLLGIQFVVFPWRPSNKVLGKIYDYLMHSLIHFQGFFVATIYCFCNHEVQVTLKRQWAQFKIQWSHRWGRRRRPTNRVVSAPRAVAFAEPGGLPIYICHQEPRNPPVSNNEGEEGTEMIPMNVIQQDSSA
T1 sequence (Q9JJ73 23-147 partner): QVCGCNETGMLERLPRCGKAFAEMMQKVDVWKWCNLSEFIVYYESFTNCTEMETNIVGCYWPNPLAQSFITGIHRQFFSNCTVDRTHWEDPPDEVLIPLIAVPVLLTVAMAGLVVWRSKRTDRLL
How it was run: (§1)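 Thawed cells in HBSS/0.1% BSA/25 mM HEPES pH 7.4 with 0.5 mM IBMX were incubated with peptides 30 min at room temperature; cAMP read by HTRF. EC50 from 4-parameter fit of % activation relative to maximal amylin or calcitonin effect.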

[2] = target: T2, rat calcitonin receptor (rat CTR) (Rattus norvegicus, UniProt P32214); assay: cAMP production in HEK cells with stable recombinant expression of rat calcitonin receptor (rat CTR); assay type: cell-based; conditions: assay buffer with 0.1% BSA
T2 construct: expressed in transfected cells
T2 sequence (P32214 25-516): T1 sequence (P32214 25-516)
How it was run: as §1

[3] = Pharmacokinetic determination via IV and SC administration in Sprague Dawley rats; conditions: male, rat, plasma, 20 nmol/kg

Row | SMILES | EC50 [1] [pM] | EC50 [2] [pM] | half-life ([3]; iv) [h] | half-life ([3]; sc) [h]
1 | CC[C@H](C)[C@H](NC(=O)[C@@H]1CCCN1C(=O)CNC(=O)[C@](C)(Cc1ccccc1)NC(=O)[C@H](CC(N)=O)NC(=O)[C@H](CC(N)=O)NC(=O)[C@H](CO)NC(=O)[C@H](CO)NC(=O)[C@H](Cc1c[nH]cn1)NC(=O)[C@H](CCCNC(=N)N)NC(=O)[C@H](CC(C)C)NC(=O)[C@H](Cc1ccccc1)NC(=O)[C@H](CC(N)=O)NC(=O)[C@H](C)NC(=O)[C@H](CC(C)C)NC(=O)[C@H](CCCNC(=N)N)NC(=O)[C@H](CCC(N)=O)NC(=O)[C@@H](NC(=O)[C@H](C)NC(=O)[C@@H]1CSSC[C@H](NC(=O)[C@@H](N)CCCCNC(=O)CC[C@H](NC(=O)CC[C@H](NC(=O)CCCCCCCCCCCCCCCCC(=O)O)C(=O)O)C(=O)O)C(=O)N[C@@H](CC(N)=O)C(=O)N[C@@H]([C@@H](C)O)C(=O)N[C@@H](C)C(=O)N[C@@H]([C@@H](C)O)C(=O)N1)[C@@H](C)O)C(=O)N[C@@H](CC(C)C)C(=O)N1CCC[C@H]1C(=O)N1CCC[C@H]1C(=O)N[C@H](C(=O)N[C@@H](CCC(=O)O)C(=O)N[C@H](C(=O)NCC(=O)N[C@@H](CO)C(=O)N[C@@H](CC(N)=O)C(=O)N[C@H](C(=O)N[C@@H](Cc1ccc(O)cc1)C(N)=O)[C@@H](C)O)C(C)C)[C@@H](C)O [Peptide 18, K(γE-γE-C18diacid)[CNTATC]ATQRLANFLRHSSNN(αMePhe)GPILPPTEVGSNTY-amide] (H-K([γGlu-γGlu-C18 diacid])CNTATCATQRLANFLRHSSNN[αMeF]GPILPPTEVGSNTY-NH2; disulfide 2-7; N-terminus assumed) | 16.5 | 3090 | 12 | 13.6
2 | CC[C@H](C)[C@H](NC(=O)[C@@H]1CCCN1C(=O)CNC(=O)[C@](C)(Cc1ccccc1)NC(=O)[C@H](CC(N)=O)NC(=O)[C@H](CC(N)=O)NC(=O)[C@H](CO)NC(=O)[C@H](CO)NC(=O)[C@H](Cc1c[nH]cn1)NC(=O)[C@H](CCCNC(=N)N)NC(=O)[C@H](CC(C)C)NC(=O)[C@H](Cc1ccccc1)NC(=O)[C@H](CC(N)=O)NC(=O)[C@H](C)NC(=O)[C@H](CC(C)C)NC(=O)[C@H](CCCNC(=N)N)NC(=O)[C@H](CCC(N)=O)NC(=O)[C@@H](NC(=O)[C@H](C)NC(=O)[C@@H]1CSSC[C@H](NC(=O)[C@@H](N)CCCCNC(=O)CC[C@H](NC(=O)CC[C@H](NC(=O)CCCCCCCCCCCCCCCCC(=O)O)C(=O)O)C(=O)O)C(=O)N[C@@H](CC(N)=O)C(=O)N[C@@H]([C@@H](C)O)C(=O)N[C@@H](C)C(=O)N[C@@H]([C@@H](C)O)C(=O)N1)[C@@H](C)O)C(=O)N[C@@H](CC(C)C)C(=O)N1CCC[C@H]1C(=O)N1CCC[C@H]1C(=O)N[C@H](C(=O)N[C@@H](CC(N)=O)C(=O)N[C@H](C(=O)NCC(=O)N[C@@H](CO)C(=O)N[C@@H](CC(N)=O)C(=O)N[C@H](C(=O)N[C@@H](Cc1ccc(O)cc1)C(N)=O)[C@@H](C)O)C(C)C)[C@@H](C)O [Peptide 20, K(γE-γE-C18diacid)[CNTATC]ATQRLANFLRHSSNN(αMePhe)GPILPPTNVGSNTY-amide] (H-K([γGlu-γGlu-C18 diacid])CNTATCATQRLANFLRHSSNN[αMeF]GPILPPTNVGSNTY-NH2; disulfide 2-7; N-terminus assumed) | 10.4 | 1850 | 10 | 10.8
3 | CC[C@H](C)[C@H](NC(=O)[C@@H]1CCCN1C(=O)CNC(=O)[C@H](Cc1ccccc1)NC(=O)[C@H](CC(N)=O)NC(=O)C(C)(C)NC(=O)[C@H](CO)NC(=O)[C@H](CO)NC(=O)[C@H](Cc1c[nH]cn1)NC(=O)[C@H](CCCNC(=N)N)NC(=O)[C@H](CC(C)C)NC(=O)[C@H](Cc1ccccc1)NC(=O)[C@H](CC(N)=O)NC(=O)[C@H](C)NC(=O)[C@H](CC(C)C)NC(=O)[C@H](CCCNC(=N)N)NC(=O)[C@H](CCC(N)=O)NC(=O)[C@@H](NC(=O)[C@H](C)NC(=O)[C@@H]1CSSC[C@H](NC(=O)[C@@H](N)CCCCNC(=O)CC[C@H](NC(=O)CCCCCCCCCCCCCCCCC(=O)O)C(=O)O)C(=O)N[C@@H](CC(N)=O)C(=O)N[C@@H]([C@@H](C)O)C(=O)N[C@@H](C)C(=O)N[C@@H]([C@@H](C)O)C(=O)N1)[C@@H](C)O)C(=O)N[C@@H](CC(C)C)C(=O)N1CCC[C@H]1C(=O)N1CCC[C@H]1C(=O)N[C@H](C(=O)N[C@@H](CCC(=O)O)C(=O)N[C@H](C(=O)NCC(=O)N[C@@H](CO)C(=O)N[C@@H](CC(N)=O)C(=O)N[C@H](C(=O)N[C@@H](Cc1ccc(O)cc1)C(N)=O)[C@@H](C)O)C(C)C)[C@@H](C)O [Peptide 44, K(γE-C18diacid)[CNTATC]ATQRLANFLRHSS(Aib)NFGPILPPTEVGSNTY-amide] (H-K([γGlu-C18 diacid])CNTATCATQRLANFLRHSS[Aib]NFGPILPPTEVGSNTY-NH2; disulfide 2-7; N-terminus assumed) | 18.5 | 2240 | 8.9 | 11

Continued, values first:

Row | EC50 [1] [pM] | EC50 [2] [pM] | half-life ([3]; iv) [h] | half-life ([3]; sc) [h] | SMILES
4 | 4.8 | 2430 | 5.6 | 8.1 | CC[C@H](C)[C@H](NC(=O)[C@@H]1CCCN1C(=O)CNC(=O)[C@H](Cc1ccccc1)NC(=O)[C@H](CC(N)=O)NC(=O)C(C)(C)NC(=O)[C@H](CO)NC(=O)[C@H](CO)NC(=O)[C@H](Cc1c[nH]cn1)NC(=O)[C@H](CCCNC(=N)N)NC(=O)[C@H](CC(C)C)NC(=O)[C@H](Cc1ccccc1)NC(=O)[C@H](CC(N)=O)NC(=O)[C@H](C)NC(=O)[C@H](CC(C)C)NC(=O)[C@H](CCCNC(=N)N)NC(=O)[C@H](CCC(N)=O)NC(=O)[C@@H](NC(=O)[C@H](C)NC(=O)[C@@H]1CSSC[C@H](NC(=O)[C@@H](N)CCCCNC(=O)CC[C@H](NC(=O)CCCCCCCCCCCCCCCCC(=O)O)C(=O)O)C(=O)N[C@@H](CC(N)=O)C(=O)N[C@@H]([C@@H](C)O)C(=O)N[C@@H](C)C(=O)N[C@@H]([C@@H](C)O)C(=O)N1)[C@@H](C)O)C(=O)N[C@@H](CC(C)C)C(=O)N1CCC[C@H]1C(=O)N1CCC[C@H]1C(=O)N[C@H](C(=O)N[C@@H](CC(N)=O)C(=O)N[C@H](C(=O)NCC(=O)N[C@@H](CO)C(=O)N[C@@H](CC(N)=O)C(=O)N[C@H](C(=O)N[C@@H](Cc1ccc(O)cc1)C(N)=O)[C@@H](C)O)C(C)C)[C@@H](C)O [Peptide 48, K(γE-C18diacid)[CNTATC]ATQRLANFLRHSS(Aib)NFGPILPPTNVGSNTY-amide] (H-K([γGlu-C18 diacid])CNTATCATQRLANFLRHSS[Aib]NFGPILPPTNVGSNTY-NH2; disulfide 2-7; N-terminus assumed)
5 | 11.2 | 2870 | 10.3 | 9 | CC[C@H](C)[C@H](NC(=O)[C@@H]1CCCN1C(=O)CNC(=O)[C@H](Cc1ccccc1)NC(=O)[C@H](CC(N)=O)NC(=O)[C@H](CC(N)=O)NC(=O)[C@H](CO)NC(=O)[C@H](CO)NC(=O)[C@H](Cc1c[nH]cn1)NC(=O)C(C)(C)NC(=O)[C@H](CC(C)C)NC(=O)[C@H](Cc1ccccc1)NC(=O)[C@H](CC(N)=O)NC(=O)[C@H](C)NC(=O)[C@H](CC(C)C)NC(=O)[C@H](CCCNC(=N)N)NC(=O)[C@H](CCC(N)=O)NC(=O)[C@@H](NC(=O)[C@H](C)NC(=O)[C@@H]1CSSC[C@H](NC(=O)[C@H](CCCCN)NC(=O)[C@@H](N)CCCCNC(=O)CC[C@H](NC(=O)CCCCCCCCCCCCCCCCC(=O)O)C(=O)O)C(=O)N[C@@H](CC(N)=O)C(=O)N[C@@H]([C@@H](C)O)C(=O)N[C@@H](C)C(=O)N[C@@H]([C@@H](C)O)C(=O)N1)[C@@H](C)O)C(=O)N[C@@H](CC(C)C)C(=O)N1CCC[C@H]1C(=O)N1CCC[C@H]1C(=O)N[C@H](C(=O)N[C@@H](CC(N)=O)C(=O)N[C@H](C(=O)NCC(=O)N[C@@H](CO)C(=O)N[C@@H](CC(N)=O)C(=O)N[C@H](C(=O)N[C@@H](Cc1ccc(O)cc1)C(N)=O)[C@@H](C)O)C(C)C)[C@@H](C)O [Peptide 129] (H-K([γGlu-C18 diacid])KCNTATCATQRLANFL[Aib]HSSNNFGPILPPTNVGSNTY-NH2; disulfide 3-8; N-terminus assumed)
